Series [1] in a line: MAD study (tolerability, liver enzymes). To be noted: high doses, after dosing was ceased. The class given is in vivo, human. The procedure:
The 100 mg BID, 200 mg BID, and 400 mg QD dose regimens proposed for this study are based on simulation results. […] Based on data from the literature, retina and choroid RPE on the retinal side are more likely to be the target eye tissues. However, the choroid RPE on the capillary bed side cannot be completely ruled out as a potential target. The proposed doses allow for the assessment of two different dosing intervals, i.e., BID vs QD. The 400 mg QD dosing regimen, if shown to be safe and effective, would be more convenient for patients and encourage better compliance relative to bid dosing. An up to 2-fold uncertainty of model prediction on PK and APH inhibition in the target eye tissues is anticipated as the physiological eye parameters in humans were translated from Dutch-Belted rabbits. […] The elevations were transient and not considered of clinical significance. […] A dose taper was instituted in subsequent studies as a risk mitigation measure.

Series [2] in a line: Ocular distribution of Compound 1 after oral administration. The class given is in vivo. An excerpt:
As an orally administered small molecule, Compound 1 is advantageous over therapeutic agents being investigated for the use in treating GA, which rely in intravitreal administration. In this regard, oral CFD inhibitors, such as Compound 1, not only provide GA patients with a more convenient and accessible option for therapy, but also help reduce the patient and caregiver burden for by lowering the need for clinical visits and minimize the risk of ocular injection-related adverse events. […] Given the overall pharmaceutical profile of Compound 1, the present disclosure provides that a treatment regimen with Compound 1 leads to better patient compliance and improved clinical outcomes in patients with GA.

On to `CC(=O)c1nn(CC(=O)N2C[C@H](F)C[C@H]2C(=O)Nc2cccc(Br)n2)c2ccc(-c3cnc(C)nc3)cc12` [Compound 1, (2S,4R)-1-(2-(3-acetyl-5-(2-methylpyrimidin-5-yl)-1H-indazol-1-yl)acetyl)-N-(6-bromopyridin-2-yl)-4-fluoropyrrolidine-2-carboxamide], for which the ALT elevations entry in series [1] is given as “ALT elevations were observed at high doses in 2 subjects after dosing was ceased”. In series [2], the blood-retina barrier crossing entry is given as “cross the blood-retina barrier”. In addition, in series [2] (choroid and retinal pigment epithelium (RPE)), the “retention in ocular tissues after oral administration” value was “selective retention in ocular tissues containing melanin”.

Source of the values: patent publication US20240252497A1, “USE OF COMPLEMENT FACTOR D INHIBITOR FOR TREATMENT OF GEOGRAPHIC ATROPHY SECONDARY TO AGE-RELATED MACULAR DEGENERATION” (Alexion Pharmaceuticals, Inc., priority 2021, published 2024).
